Test results: patent US7772252B2, “Heterocyclic substituted carbonyl derivatives and their use as dopamine D3 receptor ligands” (Aventis Pharmaceuticals Inc., priority 2001, dated 2010)

Biological target: T1, cloned human alpha-1A adrenergic receptors (α1a) (Homo sapiens, UniProt P35348)
T1 construct: expressed in transfected cells; membranes
T1 sequence (P35348 1-466): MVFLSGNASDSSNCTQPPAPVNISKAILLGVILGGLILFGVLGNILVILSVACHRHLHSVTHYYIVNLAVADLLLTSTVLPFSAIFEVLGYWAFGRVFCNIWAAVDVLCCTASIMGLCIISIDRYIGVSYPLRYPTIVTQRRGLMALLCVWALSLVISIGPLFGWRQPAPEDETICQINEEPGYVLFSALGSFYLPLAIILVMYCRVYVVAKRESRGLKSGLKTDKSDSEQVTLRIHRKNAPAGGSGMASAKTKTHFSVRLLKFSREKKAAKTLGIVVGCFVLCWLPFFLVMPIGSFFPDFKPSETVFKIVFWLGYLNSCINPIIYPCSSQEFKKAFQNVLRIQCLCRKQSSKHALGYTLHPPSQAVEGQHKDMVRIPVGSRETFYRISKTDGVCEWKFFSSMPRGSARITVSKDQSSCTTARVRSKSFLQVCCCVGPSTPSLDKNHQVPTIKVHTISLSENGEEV
Assay: [3H]Prazosin binding to cloned human alpha-1A adrenergic receptors expressed in CHO cells
Conditions: read-out: halpha1Ki (nM) h = human
Source text: ^3H]Prazosin Binding to Cloned Human Alpha-1A Adrenergic Receptors (α1a) Expressed in Chinese Hamster Ovary Cells (CHO)
• Purpose: This in vitro assay is designed as a screen to identify compounds displaying a affinity for the human α1a adrenoceptor subtype expressed in the membrane fragments of CHO cells. The assay measures the ability of the test compounds to displace [^3H] prazosin from α1a sites. • The identification of multiple vascular α1-addrenoceptors (α1a, α1b, α1d) in vitro has provided impetus to define the role(s) of these subtypes in cardiovascular regulation in vivo (Vargas and Gorman, 1995). […] Prazosin is a potent antagonist of the human α1a-adrenoceptor subtype, which has been cloned and is expressed in the membrane fragments of CHO cells. • hα1a receptor: The cloning of the human α1a cDNA was accomplished first by screening a human prostate cDNA library (Clontech), from which a portion of the coding region was obtained. This DNA fragment was then used to screen a human leukocyte genomic library (Clontech), and the rest of the coding sequence was obtained. Later these two fragments were spliced together. The entire coding sequence was then fully sequenced including matching PCR sequence with original genomic coding sequence, thus ensuring splice sites were joined correctly (Schwinn et al., 1995). Once sequenced, the gene was subcloned into the expression vector pcDNA3 (Invitrogen). Plasmid DNA was then used for transfection into CHO cells and G418 resistant clones were isolated. A clone expressing high levels of the hα1a receptor (as determined by mRNA and receptor binding data) was chosen and pharmacologically characterized. • Culture Media Ingredients for Adherent α1a expressing CHO Culture: • A. HAM's F-12 (Celigro) • B. 10% 0.2 micron filtered Fetal Bovine Serum (FBS)(Celigro) • C. 1% 0.2 micron filtered Penicillin-Streptomycin (Celigro) • D. G418 0.2 micron filtered (Geneticin 400 μg/ml)(Celigro) • Cells are cultured using established methods and procedures in either 150×25 mm culture plates (scale up to 100 plates) or a combination of these plates and 70 roller bottles. One culturing/harvest cycle typically requires 2 weeks and yields between 100-400 mg protein. Plates or bottles are incubated at 37° C.+5% CO2. • Storage: Cells are harvested by mechanical scraping, washed using PBS, collected in 250 ml Corning polypropylene centrifuge tubes, spun down (1500 RPM) and resuspended in dH2O 10% DMSO (final volume per harvest is approximately 50 ml). Protein determination is made using the Biorad DC Assay Kit. Finally, the appropriate volume is aliquoted into a 2 ml Corning Cryovial (10 mg/1-1.5 ml) which is stored at −80° C.
• Assay Requirement: 0.5 cryovials per 96 well plate (assay volume=200 μl/well) • [^3H]-Ligand: [7-methoxy-^3H]-Prazosin: 1.0 nM (NEN, NET-823) • 70-87 Ci/mmol • Materials: Phentolamine mesylate (Research Biochemicals Int. #P-131) • 96 well flat bottom plates (Beckman) • Unifilter GF/B Plate (Packard) • Polyethylenimine (Sigma #P-3134) • TomTec or Packard Filtermate 196 Cell Harvesters • Packard TopCount Scintillation Counter • Buffers: A: 50 mM Tris HCl; 0.1% ascorbate, pH 7.7 (incubation buffer) • B: 50 mM Tris HCl; pH 7.7 (wash buffer) • Procedure: Assay additions are as follows (in the order indicated): • Total Binding=50 μl buffer A+50 μl [^3H]prazosin+100 μl membrane • Nonsp. Bd.=50 μl 10 μM phentolamine+50 μl [^3H]prazosin+100 μl membrane • Test Cpd.=50 μl compound+50 μl [^3H]prazosin+100 μl membrane • Compounds to be evaluated are weighed out to yield a 10 mM stock solution in DMSO in a 24 well polystyrene plate. This is diluted to a 0.5 mM stock in dH2O, Serial dilutions in Buffer A are made from which 50 μl additions to the plate are made in duplicate in order to achieve the final concentrations desired. Typically, one 96 well plate is used to evaluate 11 compounds at 4 concentrations (10^−6-10^−9 M) in duplicate. Total binding and nonspecific binding are determined in quadruplicate. […]

Ki | Compound
9.82 nM | CC1(C)CCCN(C(=O)CCCN2CCN(c3csc4cc(F)ccc34)CC2)C1 (racemic) [compound 826857]
32.2 nM | CN(C)C1CCN(C(=O)CCCN2CCN(c3csc4cc(F)ccc34)CC2)C1 (centres unmarked) [compound 826863]
